Reference: ChEMBL document CHEMBL1806445, “Limonoids from seeds of Thai Xylocarpus moluccensis” (Bioorg Med Chem Lett, 2011)
Activity calls are given as the source filed them. The calls are words filed in the database; no cut-off is given here.

Assays:
RAW264.7 [1] = assay: Inhibition of LPS-induced nitric oxide production in mouse RAW264.7 cells assessed as nitrite level after 24 hrs by Griess method; format: functional, cell-based; conditions: for IC50: RAW264.7, 24 h
Neutrophil = assay: Inhibition of superoxide anion generation in fMLP-stimulated human neutrophils; format: functional, cell-based
RAW264.7 [2] = assay: Cytotoxicity against mouse RAW264.7 cells after 24 hrs by MTT assay; format: cell-based; conditions: RAW264.7, 24 h
RAW264.7 [3] = assay: Inhibition of LPS-induced nitric oxide production in mouse RAW264.7 cells assessed as nitrite level upto 50 uM after 24 hrs by Griess method; format: functional, cell-based

| Compound | inhibition (RAW264.7 [1]) | IC50 (RAW264.7 [1]) | IC50 (Neutrophil) | IC50 (RAW264.7 [2]) | inhibition (RAW264.7 [3]) |
| --- | --- | --- | --- | --- | --- |
| COC(=O)C[C@H]1C(C)(C)[C@H](OC(C)=O)[C@]2(O)CC3=C4CC(=O)O[C@@H](c5ccoc5)[C@]4(C)CC[C@@H]3[C@@]1(C)C2=O [2-HYDROXYFISSINOLIDE] | Dose-dependent effect | 52.1 µM | > 27 µM |  |  |
| CC1(C)C(=O)C=C[C@]2(C)[C@H]3CC[C@@]4(C)[C@H](c5ccoc5)OC(=O)[C@H]5O[C@]54[C@]3(C)C(=O)C[C@@H]12 [DEACETOXY-7-OXOGEDUNIN] | Dose-dependent effect | 22.8 µM |  | 16.7 µM |  |
| CC1(C)C(=O)C=C[C@]2(C)[C@H]3CC[C@@]4(C)[C@H](c5ccoc5)OC(=O)[C@H]5O[C@]54[C@]3(C)[C@H](O)C[C@@H]12 [DEACETYLGEDUNIN] | Dose-dependent effect | < 10 µM |  | 37.6 µM |  |
| COC(=O)C[C@H]1C(C)(C)C(=O)[C@@H]2CC3=C4CC(=O)O[C@@H](c5ccoc5)[C@]4(C)CC[C@@H]3[C@@]1(C)C2=O [MEXICANOLIDE] |  |  | > 27 µM |  | inactive |
| COC(=O)C[C@H]1[C@]2(C)C[C@]3(O)[C@@](O)(C(=O)C4=C(CC[C@]5(C)C4=CC(=O)O[C@H]5c4ccoc4)[C@]13C)[C@H]2OC(C)=O [MOLUCCENSIN H] |  |  | > 27 µM |  | inactive |
| COC(=O)C[C@H]1[C@]2(C)C[C@@]3(O)[C@]1(C)[C@H]1CC[C@]4(C)C(=C1C(=O)[C@@]3(OC)[C@H]2OC(C)=O)CC(=O)O[C@H]4c1ccoc1 [MOLUCCENSIN I] |  |  | > 27 µM |  | inactive |
| COC(=O)C[C@H]1C(C)(C)[C@H](O)[C@@H]2CC3=C4CC(=O)O[C@@H](c5ccoc5)[C@]4(C)CC[C@@H]3[C@@]1(C)C2=O [PROCERANOLIDE] | Dose-dependent effect | 50.7 µM | > 27 µM |  |  |
| COC(=O)C[C@@H]1C(C)(C)C(=O)C=C[C@@]1(C)[C@H]1CC[C@@]2(C)[C@H](c3ccoc3)OC(=O)C[C@]2(O)[C@]1(C)O [THAIMOLUCCENSIN A] | Dose-dependent effect | 45.8 µM |  |  |  |
| COC(=O)C[C@H]1[C@]2(C)CO[C@@]3(O)[C@]1(C)[C@H]1CC[C@]4(C)[C@@H](CC(=O)O[C@H]4c4ccoc4)C1=C[C@@]3(O)[C@H]2OC(C)=O [THAIMOLUCCENSIN B] |  |  | > 27 µM |  |  |
| COC(=O)C[C@H]1[C@]2(C)C[C@@]3(OC(=O)C(C)C)[C@]1(C)[C@H]1CC[C@]4(C)C(=C1C(=O)[C@@]3(O)[C@H]2OC(C)=O)CC(=O)O[C@H]4c1ccoc1 [THAIMOLUCCENSIN C] | Dose-dependent effect | 32.3 µM | > 27 µM |  |  |
